Values of other authors in patent publication US20260232695A1, “ORAL FORMULATIONS OF ABIRATERONE ACETATE AND METHOD OF MANUFACTURING THEREOF” (BDR PHARMACEUTICALS INTERNATIONAL PRIVATE LIMITED, priority 2022, published 2026).

Details: poor solubility in water and lower lipid permeability

## CC(=O)O[C@H]1CC[C@@]2(C)C(=CC[C@@H]3[C@@H]2CC[C@]2(C)C(c4cccnc4)=CC[C@@H]32)C1 [Abiraterone Acetate, 17-(pyridin-3-yl)androsta-5,16-dien-3β-yl acetate]
  BCS class: Class IV
